# Biological target: T1, chimeric human H3 receptor (Homo sapiens, UniProt Q9Y5N1, E19D)
# T1 construct: made in house; host or cells: Sf9 insect cells (baculovirus infection); P2 membrane preparation
# Assay: Chimeric human H3 receptor screening GTP binding assay (inhibition of histamine-stimulated GTP-gamma35S binding, Example 8)
# Format: biochemical
# Conditions: 1 h; "+" in Ki of Table II; assay of Example 8; read-out: percent inhibition of agonist-induced GTP-gammaS binding to H3
# Outline: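 Sf9 membranes co-expressing the chimeric receptor and a heterotrimeric G-protein (35 μg protein) in Tris pH 7.4 buffer with 10 μM GDP; compound at 4 μM plus 1 μM histamine, 125 pM GTP-gamma35S, 60 min at room temperature. Filter-bound radioactivity read; non-specific binding defined with 10 uM GTP-gammaS; percent inhibition of histamine signal.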
# T1 sequence (Q9Y5N1 with tags, fused parts or gaps E19D): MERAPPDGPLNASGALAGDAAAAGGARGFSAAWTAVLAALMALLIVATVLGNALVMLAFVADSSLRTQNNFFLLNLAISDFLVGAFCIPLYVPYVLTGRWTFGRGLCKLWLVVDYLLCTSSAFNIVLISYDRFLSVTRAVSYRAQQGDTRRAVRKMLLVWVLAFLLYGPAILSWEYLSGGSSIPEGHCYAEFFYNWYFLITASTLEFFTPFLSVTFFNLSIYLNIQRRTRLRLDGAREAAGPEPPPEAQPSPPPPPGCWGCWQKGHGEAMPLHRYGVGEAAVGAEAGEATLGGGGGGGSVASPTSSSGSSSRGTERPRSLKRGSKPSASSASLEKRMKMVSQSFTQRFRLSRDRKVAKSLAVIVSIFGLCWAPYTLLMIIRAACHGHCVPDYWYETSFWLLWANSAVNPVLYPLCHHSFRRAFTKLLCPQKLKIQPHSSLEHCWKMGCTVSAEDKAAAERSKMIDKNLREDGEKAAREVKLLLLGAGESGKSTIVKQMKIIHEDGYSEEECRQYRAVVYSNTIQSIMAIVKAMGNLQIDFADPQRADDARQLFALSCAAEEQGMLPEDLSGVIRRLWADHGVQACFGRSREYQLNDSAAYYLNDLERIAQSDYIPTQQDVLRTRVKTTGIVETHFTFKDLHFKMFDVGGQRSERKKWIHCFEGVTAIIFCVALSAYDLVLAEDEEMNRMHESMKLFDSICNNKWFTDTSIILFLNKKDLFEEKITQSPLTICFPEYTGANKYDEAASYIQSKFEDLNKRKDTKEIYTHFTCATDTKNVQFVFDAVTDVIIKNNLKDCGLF
row,SMILES,inhibition at 4 µM
1,"O=C(Cc1ccc(Cl)c(Cl)c1)N1CCN(CC(=O)N2CCN(C3CCC3)CC2)CC1 [Compound 546, 1-cyclobutyl-4-({4-[(3,4-dichlorophenyl)acetyl]piperazin-1-yl}acetyl)piperazine]",> 90%
2,"CCc1ccc(C(=O)N2CCN(CC(=O)N3CCN(C4CCC4)CC3)CC2)s1 [Compound 568, 1-cyclobutyl-4-({4-[(5-ethyl-2-thienyl)carbonyl]piperazin-1-yl}acetyl)piperazine]",> 90%
3,"CCOc1ccccc1CC(=O)N1CCN(CC(=O)N2CCN(C3CCC3)CC2)CC1 [Compound 533, 1-cyclobutyl-4-({4-[(2-ethoxyphenyl)acetyl]piperazin-1-yl}acetyl)piperazine]",> 90%
4,"COc1ccc(/C=C/C(=O)N2CCN(CC(=O)N3CCN(C4CCC4)CC3)CC2)cc1 [Compound 530, 1-cyclobutyl-4-({4-[(2E)-3-(4-methoxyphenyl)prop-2-enoyl]piperazin-1-yl}acetyl)piperazine]",> 90%
5,"O=C(Cc1ccc(F)cc1F)N1CCN(CC(=O)N2CCN(C3CCC3)CC2)CC1 [Compound 506, 1-cyclobutyl-4-({4-[(2,4-difluorophenyl)acetyl]piperazin-1-yl}acetyl)piperazine]",> 90%
6,"COc1cc(CC(=O)N2CCN(CC(=O)N3CCN(C4CCC4)CC3)CC2)cc(OC)c1 [Compound 548, 1-cyclobutyl-4-({4-[(3,5-dimethoxyphenyl)acetyl]piperazin-1-yl}acetyl)piperazine]",> 90%
7,"COc1ccc(/C=C/C(=O)N2CCN(CC(=O)N3CCN(C4CCC4)CC3)CC2)cc1OC [Compound 528, 1-cyclobutyl-4-({4-[(2E)-3-(3,4-dimethoxyphenyl)prop-2-enoyl]piperazin-1-yl}acetyl)piperazine]",> 90%
8,"CCOc1ccc(CC(=O)N2CCN(CC(=O)N3CCN(C4CCC4)CC3)CC2)cc1OC [Compound 557, 1-cyclobutyl-4-({4-[(4-ethoxy-3-methoxyphenyl)acetyl]piperazin-1-yl}acetyl)piperazine]",> 90%
9,"Cc1ccsc1C(=O)N1CCN(CC(=O)N2CCN(C3CCC3)CC2)CC1 [Compound 553, 1-cyclobutyl-4-({4-[(3-methyl-2-thienyl)carbonyl]piperazin-1-yl}acetyl)piperazine]",> 90%
10,"COc1cccc(CC(=O)N2CCN(CC(=O)N3CCN(C4CCC4)CC3)CC2)c1OC [Compound 502, 1-cyclobutyl-4-({4-[(2,3-dimethoxyphenyl)acetyl]piperazin-1-yl}acetyl)piperazine]",> 90%
11,"Cc1ccc(C(=O)N2CCN(CC(=O)N3CCN(C4CCC4)CC3)CC2)s1 [Compound 570, 1-cyclobutyl-4-({4-[(5-methyl-2-thienyl)carbonyl]piperazin-1-yl}acetyl)piperazine]",> 90%

# Same assay, conditions: 1 h; Table II "Ki", symbol "+": assay described in Example 8; read-out: percent inhibition of agonist-induced GTP-gammaS binding to H3
row,inhibition at 4 µM,SMILES
1,> 90%,"O=C(CN1CCN(C(=O)c2ccccn2)CC1)N1CCN(C2CCC2)CC1 [Compound 799, 1-cyclobutyl-4-{[4-(pyridin-2-ylcarbonyl)piperazin-1-yl]acetyl}piperazine]"
2,> 90%,"O=C(CN1CCN(C(=O)c2ccno2)CC1)N1CCN(C2CCC2)CC1 [Compound 795, 1-cyclobutyl-4-{[4-(isoxazol-5-ylcarbonyl)piperazin-1-yl]acetyl}piperazine]"

# Same assay, conditions: 1 h; Table II, "+" in the column headed Ki; assay of Example 8; read-out: percent inhibition of agonist-induced GTP-gammaS binding to H3
row,inhibition at 4 µM,SMILES
1,> 90%,"O=C(CN1CCN(C(=O)c2cc(F)ccc2F)CC1)N1CCN(C2CCC2)CC1 [Compound 684, 1-cyclobutyl-4-{[4-(2,5-difluorobenzoyl)piperazin-1-yl]acetyl}piperazine]"
2,> 90%,"CSc1ccc(C(=O)N2CCN(CC(=O)N3CCN(C4CCC4)CC3)CC2)cc1 [Compound 600, 1-cyclobutyl-4-({4-[4-(methylthio)benzoyl]piperazin-1-yl}acetyl)piperazine]"
3,> 90%,"O=C(CN1CCN(C(=O)c2ccccc2OC(F)(F)F)CC1)N1CCN(C2CCC2)CC1 [Compound 578, 1-cyclobutyl-4-({4-[2-(trifluoromethoxy)benzoyl]piperazin-1-yl}acetyl)piperazine]"
4,> 90%,"Cc1cc(C(=O)N2CCN(CC(=O)N3CCN(C4CCC4)CC3)CC2)oc1C [Compound 766, 1-cyclobutyl-4-{[4-(4,5-dimethyl-2-furoyl)piperazin-1-yl]acetyl}piperazine]"
5,> 90%,"CSc1ccc(C(=O)N2CCN(CC(=O)N3CCN(C4CCC4)CC3)CC2)s1 [Compound 633, 1-cyclobutyl-4-[(4-{[5-(methylthio)-2-thienyl]carbonyl}piperazin-1-yl)acetyl]piperazine]"
6,> 90%,"Cc1cccc(C(=O)N2CCN(CC(=O)N3CCN(C4CCC4)CC3)CC2)c1 [Compound 761, 1-cyclobutyl-4-{[4-(3-methylbenzoyl)piperazin-1-yl]acetyl}piperazine]"
7,> 90%,"O=C(CN1CCN(C(=O)c2ccc3ccccc3c2)CC1)N1CCN(C2CCC2)CC1 [Compound 716, 1-cyclobutyl-4-{[4-(2-naphthoyl)piperazin-1-yl]acetyl}piperazine]"
8,> 90%,"O=C(CN1CCN(C(=O)c2cccc(Oc3ccccc3)c2)CC1)N1CCN(C2CCC2)CC1 [Compound 764, 1-cyclobutyl-4-{[4-(3-phenoxybenzoyl)piperazin-1-yl]acetyl}piperazine]"
9,> 90%,"CCC(CC)(C(=O)N1CCN(CC(=O)N2CCN(C3CCC3)CC2)CC1)c1ccccc1 [Compound 702, 1-cyclobutyl-4-{[4-(2-ethyl-2-phenylbutanoyl)piperazin-1-yl]acetyl}piperazine]"
10,> 90%,"COc1cccc(C(=O)N2CCN(CC(=O)N3CCN(C4CCC4)CC3)CC2)c1OC [Compound 670, 1-cyclobutyl-4-{[4-(2,3-dimethoxybenzoyl)piperazin-1-yl]acetyl}piperazine]"
11,> 90%,"Cc1ccc(C(=O)N2CCN(CC(=O)N3CCN(C4CCC4)CC3)CC2)c(C)c1 [Compound 679, 1-cyclobutyl-4-{[4-(2,4-dimethylbenzoyl)piperazin-1-yl]acetyl}piperazine]"
12,> 90%,O=C(CN1CCN(C(=O)c2cc(Cl)nc(Cl)c2)CC1)N1CCN(C2CCC2)CC1 [Compound 692]
13,> 90%,"O=C(CN1CCN(C(=O)c2ccc(OCC(F)(F)F)nc2)CC1)N1CCN(C2CCC2)CC1 [Compound 636, 1-cyclobutyl-4-[(4-{[6-(2,2,2-trifluoroethoxy)pyridin-3-yl]carbonyl}piperazin-1-yl)acetyl]piperazine]"
14,> 90%,"O=C(CN1CCN(C(=O)c2ccc(Oc3cc(Cl)cc(Cl)c3)o2)CC1)N1CCN(C2CCC2)CC1 [Compound 608, 1-cyclobutyl-4-({4-[5-(3,5-dichlorophenoxy)-2-furoyl]piperazin-1-yl}acetyl)piperazine]"

row,SMILES,inhibition at 4 µM
1,"O=C(Cc1ccccc1OC(F)(F)F)N1CCN(CC(=O)N2CCN(C3CCC3)CC2)CC1 [Compound 621, 1-cyclobutyl-4-[(4-{[2-(trifluoromethoxy)phenyl]acetyl}piperazin-1-yl)acetyl]piperazine]",> 90%

# Same assay, conditions: 1 h; Table II; assay of Example 8; "+" in Ki; read-out: percent inhibition of agonist-induced GTP-gammaS binding to H3
row,inhibition at 4 µM,SMILES
1,> 90%,O=C(CN1CCN(C(=O)c2c(-c3ccccc3)nnc3ccccc23)CC1)N1CCN(C2CCC2)CC1 [Compound 1090]

# Same assay, conditions: 1 h; assay described in Example 8; symbol + in column headed Ki of Table II; read-out: percent inhibition of agonist-induced GTP-gammaS binding to H3
row,inhibition at 4 µM,SMILES
1,> 90%,"COc1ccc(Cl)cc1C(=O)N1CCN(CC(=O)N2CCN(C3CCC3)CC2)CC1 [Compound 364, 1-(5-chloro-2-methoxybenzoyl)-4-[2-(4-cyclobutylpiperazin-1-yl)-2-oxoethyl]piperazine]"
2,> 90%,"COc1ccc(Br)cc1/C=C/C(=O)N1CCN(CC(=O)N2CCN(C3CCC3)CC2)CC1 [Compound 393, 1-[(2E)-3-(5-bromo-2-methoxyphenyl)prop-2-enoyl]-4-[2-(4-cyclobutylpiperazin-1-yl)-2-oxoethyl]piperazine]"
3,> 90%,"O=C(CN1CCN(C(=O)c2ccc(F)c(Cl)c2)CC1)N1CCN(C2CCC2)CC1 [Compound 296, 1-(3-chloro-4-fluorobenzoyl)-4-[2-(4-cyclobutylpiperazin-1-yl)-2-oxoethyl]piperazine]"
4,> 90%,"O=C(CN1CCN(C(=O)c2sccc2Br)CC1)N1CCN(C2CCC2)CC1 [Compound 395, 1-[(3-bromo-2-thienyl)carbonyl]-4-[2-(4-cyclobutylpiperazin-1-yl)-2-oxoethyl]piperazine]"
5,> 90%,"Cc1ccc(C(=O)N2CCN(CC(=O)N3CCN(C4CCC4)CC3)CC2)cc1Br [Compound 292, 1-(3-bromo-4-methylbenzoyl)-4-[2-(4-cyclobutylpiperazin-1-yl)-2-oxoethyl]piperazine]"
6,> 90%,"O=C(CN1CCN(C(=O)c2ccc(Cl)nc2)CC1)N1CCN(C2CCC2)CC1 [Compound 416, 1-[(6-chloropyridin-3-yl)carbonyl]-4-[2-(4-cyclobutylpiperazin-1-yl)-2-oxoethyl]piperazine]"
7,> 90%,"CC(Oc1ccc(Cl)cc1)C(=O)N1CCN(CC(=O)N2CCN(C3CCC3)CC2)CC1 (centres unmarked) [Compound 420, 1-[2-(4-chlorophenoxy)propanoyl]-4-[2-(4-cyclobutylpiperazin-1-yl)-2-oxoethyl]piperazine]"
8,> 90%,"O=C(CN1CCN(C(=O)c2c(F)cccc2Cl)CC1)N1CCN(C2CCC2)CC1 [Compound 274, 1-(2-chloro-6-fluorobenzoyl)-4-[2-(4-cyclobutylpiperazin-1-yl)-2-oxoethyl]piperazine]"

row,SMILES,inhibition at 4 µM
1,"O=C(Cc1ccc(-c2ccccc2)cc1)N1CCN(CC(=O)N2CCN(C3CCC3)CC2)CC1 [Compound 375, 1-(biphenyl-4-ylacetyl)-4-[2-(4-cyclobutylpiperazin-1-yl)-2-oxoethyl]piperazine]",> 90%

# — patent US7851474B2, “Dipiperazinyl ketones and related analogues” (Neurogen Corporation, priority 2005, dated 2010)
